Reference: EPA's ToxValDB 9.5 (doi:10.2903/j.efsa.2015.3999)
Values joined by “and” are separate entries in the source; they are usually repeats but may differ in a detail not shown here. Identical values can stand only once.

Columns and labels:
Daphnia magna = details: chronic/long-term; duration: 21 days; reproduction
Rattus norvegicus = details: for LD50: acute, mortality
Canidae = details: subchronic; duration: 90 days; oral; Dog Other; organ weight
Folsomia candida = details: chronic/long-term
Apis mellifera = details: acute, mortality
Anas platyrhynchos = details: reproductive

`COCC(=O)N(c1c(C)cccc1C)[C@H](C)C(=O)OC` [Metalaxyl-M] was tested, and the LC50 (Colinus virginianus; acute, oral, diet, mortality) was greater than 5620 mg/kg, the LD50 (Colinus virginianus; acute, oral, mortality) was 1420 mg/kg-day and 981 mg/kg-day and 1180 mg/kg-day and the NOEL (Colinus virginianus; reproduction developmental) was 8.4 mg/kg-day. For the same compound, the NOEC (Daphnia magna) was 25 mg/L, the LC50 (Tagia sp.; acute, duration: 14 days, mortality) was 830 mg/kg and the NOEC (Tagia sp.; chronic/long-term, duration: 8 weeks) was 35.6 mg/kg. It also gave an LD50 (Rattus norvegicus; F) of 375 mg/kg-day, an LD50 (Rattus norvegicus; M) of 953 mg/kg-day and an NOAEL (Rattus norvegicus; reproduction developmental, body weight) of 50 mg/kg-day. For the same compound, the NOAEL (Canidae) was 8 mg/kg-day, the NOEC (Folsomia candida) was 125 mg/kg and the LC50 (Oncorhynchus mykiss; acute, duration: 96 hours, mortality) was greater than 100 µg/mL. It also gave an NOEC (Oncorhynchus mykiss; chronic/long-term, duration: 28 days, growth) of 50 mg/L, an LD50 (Apis mellifera; dermal) greater than 100 µg/piece and an LD50 (Apis mellifera; oral, unspecified) greater than 97.3 µg/piece. For the same compound, the NOEL (Anas platyrhynchos) was 117 mg/kg-day.
